Experiments:
Experiment in all cases: relative viability (nuclei count vs DMSO), 5 days (fraction); higher = more cells survive
AT9283 + Pictilisib = compound: O=C(Nc1c[nH]nc1-c1nc2ccc(CN3CCOCC3)cc2[nH]1)NC1CC1 [AT9283] + CS(=O)(=O)N1CCN(Cc2cc3nc(-c4cccc5[nH]ncc45)nc(N4CCOCC4)c3s2)CC1 [Pictilisib] (partner 1 µM)
Summary of the method: (§1)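 Relative viability is defined as nuclei in treated wells over nuclei in vehicle wells. Duplicate plates were run and medians reported. Lung cancer cell lines in 1536-well plates were dosed by pin tool one day after seeding, with one drug or with a fixed anchor-drug dose plus five library-drug doses (not always all listed) in √10 steps, and nuclei were counted after 5 days.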

Erlotinib + Lapatinib = compound: C#Cc1cccc(Nc2ncnc3cc(OCCOC)c(OCCOC)cc23)c1 [Erlotinib] + CS(=O)(=O)CCNCc1ccc(-c2ccc3ncnc(Nc4ccc(OCc5cccc(F)c5)c(Cl)c4)c3c2)o1 [Lapatinib] (partner 2 µM)
Summary of the method: as §1

AT9283 + Crizotinib = compound: O=C(Nc1c[nH]nc1-c1nc2ccc(CN3CCOCC3)cc2[nH]1)NC1CC1 [AT9283] + C[C@@H](Oc1cc(-c2cnn(C3CCNCC3)c2)cnc1N)c1c(Cl)ccc(F)c1Cl [Crizotinib] (partner 1 µM)
Summary of the method: as §1

Erlotinib + Decitabine = compound: C#Cc1cccc(Nc2ncnc3cc(OCCOC)c(OCCOC)cc23)c1 [Erlotinib] + Nc1ncn([C@H]2C[C@H](O)[C@@H](CO)O2)c(=O)n1 [Decitabine] (partner 2 µM)
Summary of the method: as §1

AT9283 + Trametinib = compound: O=C(Nc1c[nH]nc1-c1nc2ccc(CN3CCOCC3)cc2[nH]1)NC1CC1 [AT9283] + CC(=O)Nc1cccc(-n2c(=O)n(C3CC3)c(=O)c3c(Nc4ccc(I)cc4F)n(C)c(=O)c(C)c32)c1 [Trametinib] (partner 0.02 µM)
Summary of the method: as §1

| Cell Line | relative viability (AT9283 + Pictilisib; first compound 0.003 µM) | relative viability (AT9283 + Pictilisib; first compound 0.03 µM) | relative viability (AT9283 + Pictilisib; first compound 0.09487 µM) | relative viability (AT9283 + Pictilisib; first compound 0.3 µM) | relative viability (Erlotinib + Lapatinib; first compound 0.02 µM) | relative viability (Erlotinib + Lapatinib; first compound 0.2 µM) | relative viability (Erlotinib + Lapatinib; first compound 0.6325 µM) | relative viability (Erlotinib + Lapatinib; first compound 2 µM) | relative viability (AT9283 + Crizotinib; first compound 0.003 µM) | relative viability (AT9283 + Crizotinib; first compound 0.03 µM) | relative viability (AT9283 + Crizotinib; first compound 0.09487 µM) | relative viability (AT9283 + Crizotinib; first compound 0.3 µM) | relative viability (Erlotinib + Decitabine; first compound 0.02 µM) | relative viability (Erlotinib + Decitabine; first compound 0.2 µM) | relative viability (Erlotinib + Decitabine; first compound 0.6325 µM) | relative viability (Erlotinib + Decitabine; first compound 2 µM) | relative viability (AT9283 + Trametinib; first compound 0.003 µM) | relative viability (AT9283 + Trametinib; first compound 0.03 µM) | relative viability (AT9283 + Trametinib; first compound 0.09487 µM) | relative viability (AT9283 + Trametinib; first compound 0.3 µM) |
| --- | --- | --- | --- | --- | --- | --- | --- | --- | --- | --- | --- | --- | --- | --- | --- | --- | --- | --- | --- | --- |
| EPLC-272H | 0.318 | 0.26 | 0.199 | 0.165 | 0.923 | 1.1 | 1.24 | 0.763 | 0.951 | 0.856 | 0.431 | 0.14 | 0.362 | 0.332 | 0.324 | 0.316 | 0.285 | 0.287 | 0.161 | 0.152 |
| NCI-H1355 | 0.435 | 0.345 | 0.168 | 0.159 | 1.03 | 0.98 | 1.06 | 0.998 | 1.03 | 0.992 | 0.529 | 0.199 | 0.394 | 0.315 | 0.322 | 0.341 | 0.446 | 0.427 | 0.354 | 0.179 |
| BEN | 0.501 | 0.555 | 0.188 | 0.224 | 0.689 | 0.802 | 1.03 | 0.735 | 0.818 | 0.663 | 0.207 | 0.236 | 0.711 | 0.72 | 0.841 | 0.66 | 0.838 | 1.17 | 0.568 | 0.368 |
| NCI-H727 | 0.379 | 0.395 | 0.225 | 0.167 | 0.821 | 0.873 | 0.929 | 0.766 | 0.813 | 0.461 | 0.27 | 0.323 | 0.898 | 0.596 | 0.92 | 0.731 | 0.378 | 0.418 | 0.359 | 0.347 |
| NCI-H2342 |  |  |  |  |  |  |  |  |  |  |  |  | 0.78 |  | 0.701 | 0.683 | 0.841 | 0.808 | 0.707 | 0.442 |
| UMC-11 | 0.805 | 0.114 | 0.111 | 0.191 | 1.04 | 0.952 | 1.11 | 0.919 | 0.58 | 0.075 | 0.0835 | 0.132 | 0.652 | 0.597 | 0.636 | 0.567 | 0.679 | 0.134 | 0.126 | 0.164 |
| NCI-H1755 | 0.437 | 0.395 | 0.296 | 0.261 |  | 1.06 | 1.09 | 1.02 | 0.891 | 0.718 | 0.433 | 0.385 | 0.725 | 0.75 | 0.741 | 0.764 | 0.8 | 0.815 | 0.637 | 0.557 |
| LCLC-103H | 0.536 | 0.427 | 0.251 | 0.291 |  |  |  |  | 1.04 | 0.963 | 0.932 | 0.5 | 0.765 | 0.688 | 0.716 | 0.639 | 0.661 | 0.716 | 0.441 | 0.4 |
| IA-LM | 0.379 | 0.271 | 0.143 | 0.143 | 1.14 | 0.712 | 1.43 | 0.73 | 0.846 | 0.261 | 0.0839 | 0.132 |  |  |  |  |  |  |  |  |
| ABC-1 | 0.76 | 0.269 | 0.232 | 0.256 | 1.26 | 1.25 | 1.3 | 0.971 | 1.03 | 0.238 | 0.182 | 0.193 |  | 0.962 | 0.923 | 1.12 |  |  |  |  |
| CAL-12T | 0.354 | 0.297 | 0.23 | 0.31 | 0.815 | 0.704 | 0.68 | 0.543 | 0.642 | 0.293 | 0.276 | 0.232 |  |  |  |  | 0.421 | 0.399 | 0.211 | 0.152 |
| NCI-H2228 | 0.355 | 0.259 | 0.141 | 0.0664 | 0.946 | 1.31 | 1.31 | 0.891 | 0.587 | 0.272 | 0.195 | 0.171 |  |  |  |  | 0.422 | 0.518 | 0.239 | 0.207 |
| ChaGo-K-1 | 0.357 | 0.511 | 0.179 | 0.233 |  |  |  |  | 0.973 | 0.416 | 0.343 | 0.387 | 0.528 | 0.51 | 0.496 | 0.518 | 0.78 | 0.844 | 0.494 | 0.205 |
| NCI-H1793 | 0.317 | 0.331 | 0.183 | 0.196 |  | 0.517 | 0.916 | 0.591 |  |  |  |  | 0.492 | 0.443 | 0.328 | 0.343 | 0.389 | 0.342 | 0.292 | 0.259 |
| EBC-1 | 0.368 | 0.158 | 0.149 | 0.124 | 0.23 | 0.19 | 0.221 | 0.22 | 0.212 | 0.178 | 0.172 | 0.181 |  |  |  |  |  |  |  |  |
| SW 900 |  |  |  |  |  |  |  |  |  |  |  |  | 0.392 | 0.526 | 0.429 | 0.374 | 0.66 | 0.607 | 0.345 | 0.27 |
| NCI-H1395 | 0.583 | 0.474 | 0.388 | 0.399 |  | 1.11 | 1.02 | 0.961 |  |  |  |  | 0.816 | 0.726 | 0.807 | 0.678 | 1.07 | 0.865 | 0.444 | 0.341 |
| A549 | 0.503 | 0.0938 | 0.0787 | 0.0772 | 0.957 | 0.979 | 1.06 | 0.94 | 0.717 | 0.0751 | 0.0711 | 0.0659 | 0.263 | 0.294 | 0.266 | 0.262 |  |  |  |  |
| NCI-H1703 | 0.234 | 0.216 | 0.205 | 0.196 | 1.42 |  | 1.21 | 0.992 | 0.694 | 0.401 | 0.211 | 0.225 |  |  |  |  |  |  |  |  |
| NCI-H1648 |  |  |  |  |  |  |  |  |  |  |  |  | 0.433 | 0.512 | 0.491 | 0.39 | 0.404 | 0.563 | 0.333 | 0.336 |
